Like-named read-outs stand apart in the source and are kept apart here.
Experiments:
AML 052308 cells = test: Antileukemic activity against AML 052308 cells in culture
Description: For each compound, in vitro cell culture studies were performed in which a range of concentrations (0.25-20 μM) was tested for cytotoxicity against leukemia cell lines, primary leukemia specimens and normal bone marrow controls.

With `C=C1C(=O)O[C@H]2[C@H]1CC/C(COC(=O)c1cc3ccccc3[nH]1)=C\CC[C@@]1(C)O[C@@H]21` [BS-1-28] the CC50 (CCRF-CEM) was over 100 µM, the “Percent Growth” value (CCRF-CEM; CCRF-CEM, Log10 Concentration −4.0) was −37% and the “Percent Growth” value (CCRF-CEM; CCRF-CEM, Log10 Concentration −5.0) was −15%. The “Percent Growth” value (CCRF-CEM; CCRF-CEM, Log10 Concentration −6.0) was 3%, the “Percent Growth” value (CCRF-CEM; CCRF-CEM, Log10 Concentration −7.0) was 90% and the “Percent Growth” value (CCRF-CEM; CCRF-CEM, Log10 Concentration −8.0) was 99%. The GI50 (CCRF-CEM; CCRF-CEM, NCI five dose) was 0.286 µM, the TGI (CCRF-CEM; CCRF-CEM, NCI five dose) was 1.45E−6 and the GI50 (CCRF-CEM; leukemia cell line CCRF-CEM) was 0.288 µM. The “Percent Growth” value (HL-60(TB); Log10 Concentration −4.0) was −57%, the “Percent Growth” value (HL-60(TB); Log10 Concentration −5.0) was −17% and the “Percent Growth” value (HL-60(TB); Log10 Concentration −6.0) was 28%. The “Percent Growth” value (HL-60(TB); Log10 Concentration −7.0) was 112%, the “Percent Growth” value (HL-60(TB); Log10 Concentration −8.0) was 114% and the GI50 (HL-60(TB); NCI five dose) was 0.546 µM. It also gave a TGI (HL-60(TB); NCI five dose) of 4.15E−6, a CC50 (HL-60(TB); read-out: LC50, NCI five dose) of 65.8 µM and a CC50 (SNB-19) of 7.33 µM. For the same molecule, the “Percent Growth” value (SNB-19; SNB-19, Log10 Concentration −4.0) was −64%, the “Percent Growth” value (SNB-19; SNB-19, Log10 Concentration −5.0) was −70% and the “Percent Growth” value (SNB-19; SNB-19, Log10 Concentration −6.0) was 81%. The “Percent Growth” value (SNB-19; SNB-19, Log10 Concentration −7.0) was 92%, the “Percent Growth” value (SNB-19; SNB-19, Log10 Concentration −8.0) was 57% and the GI50 (SNB-19; SNB-19, NCI five dose) was 1.6 µM. For the same molecule, the TGI (SNB-19; SNB-19, NCI five dose) was 3.93E−6, the CC50 (SN12C) was 90.5 µM and the “Percent Growth” value (SN12C; SN12C, Log10 Concentration −4.0) was −59%. For the same molecule, the “Percent Growth” value (SN12C; SN12C, Log10 Concentration −5.0) was −35%, the “Percent Growth” value (SN12C; SN12C, Log10 Concentration −6.0) was 77% and the “Percent Growth” value (SN12C; SN12C, Log10 Concentration −7.0) was 71%. For the same molecule, the “Percent Growth” value (SN12C; SN12C, Log10 Concentration −8.0) was 60%, the GI50 (SN12C; SN12C, NCI five dose) was 1.14 µM and the TGI (SN12C; SN12C, NCI five dose) was 4.83E−6. The “Fold more potent than parthenolide” value (AML 052308 cells; AML 052308 cells) was “around 3 fold” and the EC50 (AML 052308 cells; AML 052308 cells in culture) was 2.2 µM.
